Experiments:
[1] = test system: group I and group II/III mGluRs; conditions: in vitro studies (Hirouchi 2000); cited from earlier work
[2] = test system: adenylate cyclase activity; conditions: Oka 1997; cited from earlier work
[3] = prior human studies; cited from earlier work
[4] = cited from earlier work
[5] = open-label Phase Ib clinical trial of NFC-1 in adolescent ADHD subjects with a genetic alteration in an mGluR network gene; format: in vivo, human
Protocol: An open-label Phase Ib clinical trial was conducted to investigate the safety, pharmacokinetics and efficacy of NFC-1 (fasoracetam monohydrate) in adolescent subjects between the ages of 12 and 17 previously diagnosed with ADHD who also had at least one genetic alteration in an mGluR network gene.
The study included 30 ADHD subjects who were between ages 12 and 17, of any ancestry or race, of weight within the 5th to 95th percentile for their age, and otherwise judged to be in good medical health. […] Seventeen of the 30 subjects have a CNV in a tier 1 mGluR network gene, while 7 subjects have a CNV in a tier 2 gene and 6 in a tier 3 gene.
Exclusion criteria comprised subjects suffering from a clinically significant illness, either mental or physical, that, in the investigator's opinion, might confound the results of the study or that might prevent them from completing the study, subjects that are pregnant or nursing, subjects that test positive for illicit drugs of that have a history of drug abuse, subjects that consume alcoholic beverages, or subjects for which the investigator is otherwise concerned regarding their compliance or suitability.
NFC-1 capsules of either 50 mg or 200 mg comprising fasoracetam monohydrate as active ingredient and placebo capsules comprising microcellulose were used for the study. The design of the trial was a phone screening (1 day), enrollment phase (1 to 2 days), a wash-out phase for subjects currently on ADHD medications (1-14 days), pharmacokinetic (PK) assessment (2 days), followed by a dose-escalation phase (35 days) and a follow-up phone visit approximately four weeks after the last dose, for a maximum of 127 days. All ADHD medications were discontinued during the wash-out phase prior to the study. The wash-out period for stimulants was 2-3 days and that for atomoxetine or noradrenergic agonists was 10-12 days. No new ADHD medications were started during the study.
A dose-escalation phase of the trial ran over a 5-week period, after the initial wash-out period and the PK and initial safety assessments. During week 1, all subjects were administered placebo capsules twice daily. After one week of placebo treatment, patients were started on 50 mg bid NFC-1 for 1 week. If safety and responsiveness data from prior dose level of fasoracetam indicated it was appropriate, subjects were then escalated to the next higher dose (100, 200, or 400 mg).
Of the 30 trial subjects, 3 received a maximum dose of 100 mg, 9 received a maximum dose of 200 mg, and the remaining 18 received a maximum dose of 400 mg.

| SMILES | stimulation of mGluRs [1] | adenylate cyclase activity by stimulating group II and III mGluRs [2] | adenylate cyclase activity through activation of group I mGluRs [2] | half-life [3] [h] | safety and tolerability ([4]; Phase I-III clinical trials) | effects on psychiatric symptoms ([4]; Phase III data, cerebral infarct patients and adult dementia patients with cerebrovascular diseases) | efficacy in dementia ([4]; Phase III trials, dementia-related cognitive impairment) | OCD symptoms during therapy ([5]; all eight subjects with symptoms of OCD) | dermatillomania symptoms ([5]; one subject with OCD and history of ear scratching) | bleeding ulcer from ear scratching ([5]; one subject with OCD and history of ear scratching (dermatillomania)) | tics during therapy ([5]; two individuals with history of recurrent tics, 50-400 mg bid dose escalation) |
| --- | --- | --- | --- | --- | --- | --- | --- | --- | --- | --- | --- |
| O=C1CC[C@H](C(=O)N2CCCCC2)N1 [Fasoracetam, fasoracetam] | can stimulate both group I and group II/III mGluRs | may also inhibit adenylate cyclase activity | may stimulate adenylate cyclase activity | 5 to 6.5 | – | – | – | – | – | – | – |
| O=C1CC[C@H](C(=O)N2CCCCC2)N1 [NFC-1, fasoracetam monohydrate] | – | – | – | – | generally safe and well tolerated | beneficial effects | did not show sufficient efficacy | improved | reduced | healed | did not demonstrate tics |
